According to ChEMBL document CHEMBL3864150, “Synthesis and cytotoxicity study of novel 3-(triazolyl)coumarins based fluorescent scaffolds” (Bioorg Med Chem Lett, 2016):
pIC50: −log10 of the molar value.

What was measured:
[1] = Cytotoxicity against human HeLa cells after 24 hrs by MTT assay; format: functional, cell-based
[2] = Cytotoxicity against human MRC5 cells after 24 hrs by MTT assay
HeLa = experiment: Selectivity factor, ratio of IC50 for human MRC5 cells to IC50 for human HeLa cells
MCF7 = experiment: Selectivity factor, ratio of IC50 for human MRC5 cells to IC50 for human MCF7 cells
[3] = Cytotoxicity against human MCF7 cells after 24 hrs by MTT assay; format: functional, cell-based; conditions: MCF7, 24 h
[4] = Drug uptake in human MCF7 cells at 20 uM after 2 hrs by fluorescence microscopy; format: ADME, cell-based; conditions: mcf7, 2 h

Structure (SMILES)	pIC50 [1]	IC50 at 24 h [2] [µM]	Ratio IC50 (HeLa)	Ratio IC50 (MCF7)	pIC50 [3]	Drug uptake [4]
[N-]=[N+]=Nc1cc2ccc(O)cc2oc1=O	4.38	62.7	1.5	1.63	4.42	–
COc1cccc2cc(N=[N+]=[N-])c(=O)oc12	4.44	58.7	1.61	1.85	4.50	–
NCCC(=O)N1Cc2ccccc2-c2nnn(-c3cc4ccc(O)cc4oc3=O)c2-c2ccccc21	4.68	90.2	4.27	4.9	4.74	Active
NCCC(=O)N1Cc2ccccc2-c2nnn(-c3cc4cc(Br)ccc4oc3=O)c2-c2ccccc21	4.74	100	5.49	9.4	4.97	–
COc1cccc2cc(-n3nnc4c3-c3ccccc3N(C(=O)CCN)Cc3ccccc3-4)c(=O)oc12	4.58	92.8	3.54	4.24	4.66	–
[N-]=[N+]=Nc1cc2cc(Br)ccc2oc1=O	4.55	70.4	2.48	2.97	4.63	–
[N-]=[N+]=Nc1cc2ccccc2oc1=O	4.53	70.2	2.37	2.63	4.57	–
NCCC(=O)N1Cc2ccccc2-c2nnn(-c3cc4ccc(OCCBr)cc4oc3=O)c2-c2ccccc21	4.71	121	6.19	6.52	4.73	–
[N-]=[N+]=Nc1cc2cc(Cl)cc(Cl)c2oc1=O	4.56	67.2	2.43	3.6	4.73	–
COc1cccc2c1C(=O)c1c(O)c3c(c(O)c1C2=O)C[C@@](O)(C(=O)CO)C[C@@H]3O[C@H]1C[C@H](N)[C@H](O)[C@H](C)O1 [DOXORUBICIN]	5.28	70.6	–	–	–	–
NCCC(=O)N1Cc2ccccc2-c2nnn(-c3cc4ccccc4oc3=O)c2-c2ccccc21	4.70	110	5.55	8.68	4.90	–
NCCC(=O)N1Cc2ccccc2-c2nnn(-c3cc4cc(Cl)cc(Cl)c4oc3=O)c2-c2ccccc21	4.76	185	10.58	18.84	5.01	Active
